Literature values in US20230320382A1 (DSM IP Assets B.V., priority 2018, published 2023).

[1] = added to the diet of growing pigs

O=C(O)c1ccccc1 [Benzoic acid]
Effect on blood pH [1]: only slightly reduces | Effect on urine pH [1]: markedly acidifies | Site of absorption (ingested benzoic acid): absorbed in the first tract of the small intestine
